What was measured:
HIV-1 = conditions: incubation up to week 28; cited from earlier work
[1] = single dose, intravenous and oral, HIV-1 infected individuals; cited from earlier work
HIV = assay: Randomized double blind placebo controlled study, HIV RNA viral load over 10 days of treatment; assay type: in vivo, human
Description: (§1) Subjects with HIV RNA viral load (VL)≧5,000 copies/mL were enrolled and randomized 1:1:1 to DAPD 500 mg bid: DAPD 500 mg with AZT 300 mg bid: DAPD 500 mg with AZT 200 mg bid for 10 days. In each arm, subjects were randomized 3:1 to DAPD: placebo. VL was determined daily.

TK1 [2] = molecular target: T1, TK1 (Homo sapiens, UniProt P04183); assay: Phosphorylation of AZT to AZT-MP by thymidine kinase; assay type: biochemical; conditions: activated PBM cells
T1 sequence (P04183 1-234): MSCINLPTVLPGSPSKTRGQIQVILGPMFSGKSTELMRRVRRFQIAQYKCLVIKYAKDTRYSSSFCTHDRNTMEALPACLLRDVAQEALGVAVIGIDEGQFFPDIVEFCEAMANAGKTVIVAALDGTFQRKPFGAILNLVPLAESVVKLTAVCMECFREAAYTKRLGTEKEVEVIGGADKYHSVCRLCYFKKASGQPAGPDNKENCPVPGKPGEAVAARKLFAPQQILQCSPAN
Text: (§2) The initial intracellular phosphorylation step of AZT is catalyzed by thymidine kinase (TK). The most likely enzyme for monophosphorylation to AZT-MP is TK1, which is located primarily in the cytosol of cells in S-phase. […] Since the initial phosphorylation step of AZT to AZT-MP remains approximately linear with dose (5, 22), the Vmax,TK1 was assumed constant between individuals. […] The maximal rates of phosphorylation to AZT-MP and AZT-DP (Vmax,AZT-MP and Vmax,ThymK, respectively) in activated PBM cells were calculated using previously published enzyme kinetics measurements from a cohort of HIV-1 infected individuals who were not previously treated with AZT (36). […] The calculation assumed a volume of 0.21 μl/10^6, corresponding to a protein content of 0.12 mg (3, 33). The final phosphorylation step to active AZT-TP is catalyzed by nucleoside diphosphate kinase and is not rate limiting under physiological conditions. […] Therefore, the conversion rate of AZT-DP to AZT-TP (KDP,TP) was also assumed to be 0.28 h^−1. The assumed distributions for the rate constants describing the cellular phosphorylation and dephosphorylation of AZT are contained in Table 2.

PBM cells = conditions: cited from earlier work; for Rate of dephosphorylation: in vivo
TK1 [3] = molecular target: T1, TK1; conditions: concentration at 50% of maximal metabolism rate; read-out: Km versus TK1; cited from earlier work
thymidylate kinase [4] = molecular target: T2, thymidylate kinase (Homo sapiens, UniProt P23919); conditions: cited from earlier work; for Km: substrate AZT-MP, read-out: Km versus thymidylate kinase (Km,ThmK)
T2 sequence (P23919 1-212): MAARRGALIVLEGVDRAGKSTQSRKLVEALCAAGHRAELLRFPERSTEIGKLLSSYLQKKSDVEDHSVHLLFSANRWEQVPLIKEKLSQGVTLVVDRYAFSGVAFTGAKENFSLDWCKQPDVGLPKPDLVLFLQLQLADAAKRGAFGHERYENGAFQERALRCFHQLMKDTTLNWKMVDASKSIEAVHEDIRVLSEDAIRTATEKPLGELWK

thymidylate kinase [5] = molecular target: T2, thymidylate kinase; assay: Phosphorylation of AZT-MP to AZT-DP by thymidylate kinase; assay type: biochemical; conditions: activated PBM cells of HIV-1 infected individuals not previously treated with AZT; SD of log-transformed values 0.89
Text: as §2

[6] = Day 20; rank order of treatment groups (mg bid)
Description: Twenty-four subjects were enrolled [placebo (n=2), AZT 200 mg (n=2), AZT 300 mg (n=2), DAPD 500 mg (n=6), DAPD/AZT 200 mg (n=6), and DAPD/AZT 300 mg (n=6)] and treated for 10 days. Hematological indices including hemoglobin (g/dl) and mean corpuscular volume (MCV, femtoliters) were measured at Screening, Day 1 prior to receiving treatment and Days 5, 10 and 20.

[7] = molecular target: wild-type HIV-1 reverse transcriptase (Human immunodeficiency virus type 1 group M subtype B, UniProt P03366); conditions: cited from earlier work
[8] = cited from earlier work
[9] = Tolerability in the DAPD/AZT clinical study; assay type: in vivo, human; conditions: 10 days of treatment, HIV-infected subjects
Description: as §1

Cc1cn([C@H]2C[C@H](N=[N+]=[N-])[C@@H](CO)O2)c(=O)[nH]c1=O [AZT, 3′-azido-3′-deoxythymidine]
Drug resistant mutations selected in vitro (HIV-1): a mixture of K70K/R mutations at week 25
Systemic clearance (Cl) [1]: 18.3 to 25 mL/min/kg
Volume of distribution (Vss) [1]: 1.3 to 1.4 L/kg
Mean VL ± SD from baseline (HIV; Day 9, AZT 200 mg bid alone): −0.80 log10 copies/mL
Mean VL ± SD from baseline (HIV; Day 9, AZT 300 mg bid alone): −0.35 log10 copies/mL
Mean VL ± SD from baseline (HIV; Day 10, AZT 200 mg bid alone): −0.65 log10 copies/mL
Mean VL ± SD from baseline (HIV; Day 10, AZT 300 mg bid alone): −0.45 log10 copies/mL
Mean VL ± SD from baseline (HIV; Day 11, AZT 200 mg bid alone): −0.70 log10 copies/mL
Mean VL ± SD from baseline (HIV; Day 11, AZT 300 mg bid alone): −0.60 log10 copies/mL
Vmax,TK1, maximal rate of phosphorylation to AZT-MP (TK1 [2]): 0.86 μmol/l per hr
Accumulation of AZT nucleotides, stimulated versus resting PBM cells (PBM cells): 60 to 150 times
Rate of dephosphorylation (PBM cells): 0.28 h⁻¹
Km (TK1 [3]): 0.6 µM
Km (thymidylate kinase [4]): 12 µM
Vmax,ThymK, median (thymidylate kinase [5]): 0.13 μmol/l per hr
Trend in decrease in hemoglobin from Baseline [6]: DAPD/AZT 300≧AZT 300≧DAPD/AZT 200>AZT 200>DAPD>placebo
Trend in increase in MCV from Baseline [6]: DAPD/AZT 300>AZT 300>DAPD/AZT 200>AZT 200>placebo>DAPD

Cc1cn([C@H]2C[C@H](N=[N+]=[N-])[C@@H](COP(=O)(O)O)O2)c(=O)[nH]c1=O [AZT-MP, zidovudine-monophosphate]
Rate of dephosphorylation (PBM cells): 0.28 h⁻¹
Km (thymidylate kinase [4]): 12 µM
Vmax,AZT-MP as share of the Vmax versus thymidine-MP (thymidylate kinase [4]; thymidylate kinase): 0.3%
Vmax,ThymK, median (thymidylate kinase [5]): 0.13 μmol/l per hr

Cc1cn([C@H]2C[C@H](N=[N+]=[N-])[C@@H](CO[P@](=O)(O)O[P@](=O)(O)OP(=O)(O)O)O2)c(=O)[nH]c1=O [AZT-TP, zidovudine-triphosphate]
Rate of dephosphorylation (PBM cells): 0.28 h⁻¹
IC50 [7]: ~35 nM

C[C@H](Cn1cnc2c(N)ncnc21)OCP(=O)(O)O [tenofovir, 9-R-2-phosphonomethoxypropyl adenine]
Cellular triphosphate half-life [8]: > 60 h

Nc1nc(N)c2ncn([C@H]3CO[C@@H](CO)O3)c2n1 [DAPD, (−)-β-D-2,6-diaminopurine dioxolane]
Drug resistant mutations selected in vitro (HIV-1): a mixture of K65R and L74V at week 20
Mean VL ± SD from baseline (HIV; Day 9, DAPD 500 mg bid alone): −0.83 ± 0.61 log10 copies/mL
Mean VL ± SD from baseline (HIV; Day 10, DAPD 500 mg bid alone): −1.07 ± 0.80 log10 copies/mL
Mean VL ± SD from baseline (HIV; Day 11, DAPD 500 mg bid alone): −1.03 ± 0.59 log10 copies/mL
Tolerability [9]: well tolerated
Trend in decrease in hemoglobin from Baseline [6]: DAPD/AZT 300≧AZT 300≧DAPD/AZT 200>AZT 200>DAPD>placebo
Trend in increase in MCV from Baseline [6]: DAPD/AZT 300>AZT 300>DAPD/AZT 200>AZT 200>placebo>DAPD

Cc1cn([C@H]2C[C@H](N=[N+]=[N-])[C@@H](COP(=O)(O)OP(=O)(O)O)O2)c(=O)[nH]c1=O [AZT-DP, AZT-diphosphate]
Rate of dephosphorylation (PBM cells): 0.28 h⁻¹

Nc1nc2c(ncn2[C@H]2CO[C@@H](CO)O2)c(=O)[nH]1 [DXG, beta-D-(2R,4R)-1,3-dioxolane guanosine]
Cellular triphosphate half-life [8]: ~9.5 h

— patent publication US20110053884A1, “POTENT COMBINATIONS OF […] DRUGS THAT SELECT FOR THE K65R MUTATION IN THE HIV POLYMERASE” (priority 2007, published 2011)
